Measured values from patent US20140023653A1, “BOLDINE DERIVATIVES FOR PROMOTING BONE GROWTH” (OSTEOGENEX, INC., priority 2012, published 2014).

Target: T1, Sclerostin (Homo sapiens, UniProt Q9BQB4)
T1 construct: host or cells: human embryonic cells (reporter cells)
T1 sequence (Q9BQB4 24-213): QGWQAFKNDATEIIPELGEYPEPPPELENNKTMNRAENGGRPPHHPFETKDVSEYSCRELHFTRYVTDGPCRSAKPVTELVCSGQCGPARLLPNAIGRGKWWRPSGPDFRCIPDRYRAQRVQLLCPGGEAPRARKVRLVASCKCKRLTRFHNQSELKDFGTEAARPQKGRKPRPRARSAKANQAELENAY
Assay: Luciferase Wnt pathway activity assay: inhibition of sclerostin by restoration of Wnt signaling in human cells
Format: cell-based
Description: The Y axis represents Relative Light Units (RLU) which represents Wnt pathway signaling. Addition of Wnt (W) activates the Wnt pathway, while addition of Sclerostin (S) inhibits the Wnt pathway. […] Compound concentrations are indicated in μM.
Briefly, cells (e.g., human cells) are treated with a predetermined dose of a candidate compound for a complete dosing schedule.
Concentrations are indicated along the X axis in micromolar values.

Molecule `COc1cc2c(cc1O)C[C@H]1c3c(cc(O)c(OC)c3-2)CCN1C` [Compound 1, (S)-1,10-dimethoxy-6-methyl-5,6,6a,7-tetrahydro-4H-dibenzo[de,g]quinoline-2,9-diol] has an IC50 of 5 µM.
